Results taken from patent US11236046B2, “Substituted heterocyclic sulfonamide compounds useful as TRPA1 modulators” (Genentech, Inc., priority 2013, dated 2022).
pIC50: −log10 of the molar value.

Target: human TRPA1 (Homo sapiens (Human), UniProt O75762)
Test: FLIPR Tetra calcium influx assay, block of cinnamaldehyde-induced calcium influx in CHO cells expressing TRPA1 (human)
Type: cell-based
Details: 20 min compound incubation, 75 uM cinnamaldehyde (~EC80), Hill coefficient fixed to 1.5, read-out: hTRPA1 AUC IC50
Protocol: IC50 Determinations of Exemplified Compounds.
IC50s (effective concentration) of compounds on the human and rat TRPA1 channels were determined using a FLIPR Tetra instrument. CHO cells expressing TRPA1 were plated into 384-well plates, incubated overnight at 37C, and loaded with BD calcium indicator dye for 1 hr at 37° C. followed by 15 minutes. at room temperature. The assay buffer was Hank's Balanced Salt Solution (HBSS) containing 20 mM HEPES (pH readjusted to 7.4) along with 0.02% BSA.
Following dye load and plate cool down, compounds were added to the cells using FLIPR Tetra. Plates were then incubated with compounds for 20 minutes at room temperature prior to adding agonist. Following this incubation, ˜EC80 concentration of cinnamaldehyde (75 uM for human TRPA1 and 45 uM for rat TRPA1) was added to active the channels and block of cinnamaldehyde induced calcium influx was measured.
Fixing the Hill coefficient will generally reduce variability of the IC50 determination. The IC50s were individually examined to make sure the MIN and MAX points were set correctly prior to validation of the results.

human TRPA1, sequence (O75762 whole entry): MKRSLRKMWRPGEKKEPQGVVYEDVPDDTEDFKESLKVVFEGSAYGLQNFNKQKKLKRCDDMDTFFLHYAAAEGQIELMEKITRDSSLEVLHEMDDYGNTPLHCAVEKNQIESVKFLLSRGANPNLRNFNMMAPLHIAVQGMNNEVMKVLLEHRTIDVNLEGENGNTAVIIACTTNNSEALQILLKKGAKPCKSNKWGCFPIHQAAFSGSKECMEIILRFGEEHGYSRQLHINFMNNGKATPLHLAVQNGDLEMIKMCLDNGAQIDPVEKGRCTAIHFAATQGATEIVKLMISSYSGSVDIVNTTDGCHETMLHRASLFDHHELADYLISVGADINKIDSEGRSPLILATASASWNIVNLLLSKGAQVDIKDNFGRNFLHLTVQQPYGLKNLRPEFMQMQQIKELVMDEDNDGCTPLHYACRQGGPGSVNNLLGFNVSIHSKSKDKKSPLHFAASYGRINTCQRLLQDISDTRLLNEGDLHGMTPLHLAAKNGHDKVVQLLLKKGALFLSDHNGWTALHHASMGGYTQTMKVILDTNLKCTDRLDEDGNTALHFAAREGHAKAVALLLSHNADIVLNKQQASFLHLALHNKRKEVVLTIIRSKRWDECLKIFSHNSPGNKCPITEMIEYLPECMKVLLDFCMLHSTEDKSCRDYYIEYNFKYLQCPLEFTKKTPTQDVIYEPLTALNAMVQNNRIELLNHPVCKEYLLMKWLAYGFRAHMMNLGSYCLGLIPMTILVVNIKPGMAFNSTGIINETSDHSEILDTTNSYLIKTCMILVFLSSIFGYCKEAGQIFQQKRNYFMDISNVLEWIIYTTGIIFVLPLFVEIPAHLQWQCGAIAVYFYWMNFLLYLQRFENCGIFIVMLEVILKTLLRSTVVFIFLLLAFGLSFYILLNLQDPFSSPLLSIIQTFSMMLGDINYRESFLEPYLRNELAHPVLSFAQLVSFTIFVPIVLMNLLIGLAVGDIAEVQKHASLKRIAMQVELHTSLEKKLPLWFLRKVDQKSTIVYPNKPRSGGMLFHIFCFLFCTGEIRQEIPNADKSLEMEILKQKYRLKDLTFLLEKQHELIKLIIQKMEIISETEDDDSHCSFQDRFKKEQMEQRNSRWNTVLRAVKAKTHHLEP

| pIC50 | SMILES |
| --- | --- |
| 7.31 | O=C(NCc1cc(-c2ccc(C(F)(F)F)nc2)cc(F)n1)[C@@H]1C[C@@H](F)CN1S(=O)(=O)c1ccc(F)cc1 [Example 120, (2S,4R)-4-fluoro-1-(4-fluorophenyl)sulfonyl-N-[[6-fluoro-4-[6-(trifluoromethyl)-3-pyridyl]-2-pyridyl]methyl]pyrrolidine-2-carboxamide] |
| 7.54 | O=C(NCc1cc(F)cc(-c2ccc(C(F)F)nc2)c1)[C@@H]1C[C@@H](F)CN1S(=O)(=O)c1ccc(F)cc1 [Example 94, (2S,4R)—N-[[3-[6-(difluoromethyl)-3-pyridyl]-5-fluoro-phenyl]methyl]-4-fluoro-1-(4-fluorophenyl)sulfonyl-pyrrolidine-2-carboxamide] |
| 7.38 | O=C(NCc1cc(-c2cnc(C(F)(F)F)nc2)c(Cl)cn1)[C@@H]1C[C@@H](F)CN1S(=O)(=O)c1ccc(F)cc1 [Example 192, (2S,4R)—N-([5-chloro-4-[2-(trifluoromethyl)pyrimidin-5-yl]pyridin-2-yl]methyl)-4-fluoro-1-[(4-fluorobenzene)sulfonyl]pyrrolidine-2-carboxamide] |
| 7.64 | N#Cc1cnc(CNC(=O)[C@@H]2C[C@@H](F)CN2S(=O)(=O)c2ccc(F)cc2)cc1-c1ccc(C(F)(F)F)cc1 [Example 70, (2S,4R)—N-((5-cyano-4-(4-(trifluoromethyl)phenyl)pyridin-2-yl)methyl)-4-fluoro-1-(4-fluorophenylsulfonyl)pyrrolidine-2-carboxamide] |
| 6.37 | O=C(NCc1cc(-c2ccc(C(F)(F)F)cc2)ncn1)[C@@H]1C[C@H]2COC[C@H]2N1S(=O)(=O)c1ccc(F)cc1 (single isomer, unassigned) [Example 99] |
| 7.70 | O=C(NCc1cc(-c2ccc(C(F)(F)F)nc2)c(F)cn1)[C@@H]1C[C@@H](F)CN1S(=O)(=O)c1ccc(F)cc1 [Example 140, (2S,4R)-4-fluoro-N-((5′-fluoro-6-(trifluoromethyl)-3,4′-bipyridin-2′-yl)methyl)-1-(4-fluorophenylsulfonyl)pyrrolidine-2-carboxamide] |
| 7.42 | O=C(NCc1cc(-c2cnc(C(F)(F)F)nc2)c(F)cn1)[C@@H]1C[C@@H](F)CN1S(=O)(=O)c1ccc(F)cc1 [Example 167, (2S,4R)-4-fluoro-N-((5-fluoro-4-(2-(trifluoromethyl)pyrimidin-5-yl)pyridin-2-yl)methyl)-1-(4-fluorophenylsulfonyl)pyrrolidine-2-carboxamide] |
| 7.85 | COc1nn(-c2cnc(C(F)(F)F)cn2)cc1CNC(=O)[C@@H]1C[C@@H](F)CN1S(=O)(=O)c1ccc(F)cc1 [Example 58, (2S,4R)-4-fluoro-1-(4-fluorophenyl)sulfonyl-N-[[3-methoxy-1-[5-(trifluoromethyl)pyrazin-2-yl]pyrazol-4-yl]methyl]pyrrolidine-2-carboxamide] |
| 7.32 | N#Cc1cc(CNC(=O)[C@@H]2C[C@@H](F)CN2S(=O)(=O)c2ccc(F)cc2)cc(-c2ccc(C(F)(F)F)nc2)c1 [Example 112, (2S,4R)—N-[[3-cyano-5-[6-(trifluoromethyl)-3-pyridyl]phenyl]methyl]-4-fluoro-1-(4-fluorophenyl)sulfonyl-pyrrolidine-2-carboxamide] |
| 7.07 | O=C(NCc1cc(F)cc(-c2nc(C(F)(F)F)cs2)c1)[C@@H]1C[C@@H](F)CN1S(=O)(=O)c1ccc(F)cc1 [Example 175, (2S,4R)-4-fluoro-1-(4-fluorophenyl)sulfonyl-N-[[3-fluoro-5-[4-(trifluoromethyl)thiazol-2-yl]phenyl]methyl]pyrrolidine-2-carboxamide] |

| SMILES | pIC50 |
| --- | --- |
| O=C(NCc1cc(-c2ccc(C(F)(F)F)nc2)ncn1)[C@@H]1C[C@@H](F)CN1S(=O)(=O)c1ccc(F)cc1 [Example 154, (2S,4R)-4-fluoro-1-(4-fluorophenylsulfonyl)-N-((6-(6-(trifluoromethyl)pyridin-3-yl)pyrimidin-4-yl)methyl)pyrrolidine-2-carboxamide] | 7.01 |
